# “Also recorded” adds a separate entry of the source.
# Assays:
# Assay type in all cases: cell-based
# [1] = test system: multiple myeloma cells; experiment: Growth of multiple myeloma cells, trypan blue exclusion assay; conditions: 24 hours
# Description: The indicated multiple myeloma cells were seeded at 300,000 cells/mL in 6-well plates and cultured in the presence of DMSO (0.2%, control) or various concentrations of NSC697923 for 24 hours. The live and dead cells were counted using the trypan blue exclusion assay. Shown are the means from 3 separate experiments. The average number of live cells in the control was set at 100.
# It has been shown that multiple myeloma cells also depend on NF-kB signaling for survival. It was thus hypothesized that these cells may also sensitive to NSC697923 treatment. […] The indicated multiple myeloma cells were seeded at 300,000 cells/mL in 6-well plates and cultured in the presence of DMSO (0.2%, control) or various concentrations of NSC697923 for 24 hours. The live and dead cells were counted using the trypan blue exclusion assay. Shown are the means from 3 separate experiments. The average number of live cells in the control was set at 100.
# [2] = test system: ABC DLBCL cells; experiment: Growth of ABC DLBCL cells, trypan blue exclusion assay; conditions: including OCI-Ly3 cells, 24 hours
# Description: The indicated ABC DLBCL cells were seeded at 3×10^5 cells/ml in 6-well plates and cultured in the presence of DMSO (0.2%, control) or various concentrations of NSC697923 for 24 hours. The live and dead cells were counted using the trypan blue exclusion assay. Shown are the means from three separate experiments. The average number of live cells in the control was set at 100. […] The levels of the indicated proteins were analyzed by western blotting. For caspase 3 detection, a mixture of an antibody for the uncleaved form and an antibody specific for the cleaved form was used. In FIG. 7C, OCI-Ly10 cells were treated as in FIG. 7A. The apoptotic cells (Annexin V positive cells) were measured by flow cytometry as described in Example 1 infra. A representative result from three independent experiments is depicted. […] BrdU was then added into the culture medium for 30 minutes before the cell-cycle distribution of the treated cells was analyzed as described in Example 1 infra. Shown are the averages from two independent experiments. […] BrdU was then added into the culture medium for 30 minutes before the cell-cycle distribution of the treated cells was analyzed as described in Example 1 infra. Shown are the averages from two independent experiments. […]
# [3] = test system: PMA-induced NF-κB activation in 293T-NF-luc cells; experiment: NF-κB luciferase reporter assay, PMA stimulation; conditions: PMA 100 ng/ml, 6 hours
# Description: In FIG. 1B, 293T-NF-luc cells were pretreated with the indicated concentrations of NSC697923 or DMSO (final concentration 0.2%; control) for 1 hour. The cells were then stimulated with PMA (100 ng/ml) or TNFα(10 ng/ml) for 6 hours, and the green fluorescence (from GFP for normalization) and luciferase activity in the cell lysate were measured. Data were expressed as the percentage activity of the control (mean+/−standard deviation (SD); n=3). […] The cells were harvested at the indicated times after stimulation, and phosphorylation of IKK and IκBα were analyzed by western blotting. Analysis of actin was used as the loading control.
# FIGS. 2A-2D show the effect of NSC697923 related compounds on NF-κB activation induced by PMA. […]
# HEK293T cells were transfected with the pNF-κB luciferase reporter construct, which contains four copies of the NF-κB binding site upstream of firefly luciferase gene (Moran et al., “Protein Kinase C-Associated Kinase can Activate NFkappaB in Both a Kinase-Dependent and a Kinase Independent Manner,” J. Biol. Chem. 278:21526-21533 (2003), which is hereby incorporated by reference in its entirety), together with the pBabe-puro for selection. Individual clones, selected with 1.5 μg/m puromycin, were assessed for NF-κB-luciferase reporter activation by TNFα and PMA. […]
# [4] = test system: SUDHL-6; experiment: Proliferation and survival of GCB DLBCL cells (trypan blue, annexin V); conditions: SUDHL-6, 24 hours
# Description: (§1) In FIG. 8A, the GCB DLBCL cells were plated at the indicated cell concentrations and treated with various concentrations of NSC697923 for 24 hours. The effects of NSC697923 on the growth of these cells were analyzed as described in FIG. 7A. In FIG. 8B, the cells were plated at a concentration of 4×10^5 cells/ml and treated with NSC697923 as in FIG. 8A, and the apoptotic cells were analyzed as described in FIG. 7C.
# (§2) Apoptosis was assayed using the 7AAD/annexin V apoptosis kit (BD Bioscience) as previously described (Kim et al., “Protein Kinase C-Associated Kinase is Required for NF-kappaB Signaling and Survival in Diffuse Large B-Cell Lymphoma Cells,” Blood 111:1644-1653 (2008), which is hereby incorporated by reference in its entirety). Analysis of the cell cycle distribution of the treated cells was carried out with propidium iodide (PI) and BrdU double staining as previously described (DeRan et al., “Assessing G1-to-S-Phase Progression after Genotoxic Stress,” Methods Mol. Biol. 782:221-230 (2011) and Su et al., “DNA Damage Induces Downregulation of Histone Gene Expression Through the G1 Checkpoint Pathway,” EMBO. J. 23:1133-1143 (2004), each of which is hereby incorporated by reference in its entirety).
# [5] = test system: OCI-Ly7; experiment: as above; conditions: OCI-Ly7, 24 hours
# Description: as §1, §2
structure (smiles),measurement,setting,value
"Cc1ccc(S(=O)(=O)c2ccc([N+](=O)[O-])o2)cc1 [NSC697923, 2-nitro-5-tosylfuran]",growth of multiple myeloma cells,[1],inhibits the growth of multiple myeloma cells
same,proliferation and survival of ABC DLBCL cells,[2],induced proliferation arrest and cell death
same,PMA-induced NF-κB activation (luciferase reporter),[3],selective inhibitory effect; also recorded: inhibits NF-κB activation induced by PMA
same,proliferation and survival,[4],inhibited proliferation and survival
same,proliferation and survival,[5],inhibited proliferation and survival

# Source: US9458123B2, “Methods, pharmaceutical compositions, therapeutic systems, and compounds for treating B cell malignancies” (University of Rochester, priority 2012, dated 2016)
